Counter-ions that a name gives are not always drawn.
Experiments:
[1] = hydrolysate; as worded; cited from earlier work
physchem = assay: physchem
Text: Therefore, propylene glycol was used as a basic solvent in the formulation of the present patent.

Row | Solubility in propylene glycol (in words) (physchem) | Compound | other results
1 |  | COc1ccc([C@@H]2Sc3ccccc3N(CCN(C)C)C(=O)[C@@H]2O)cc1 [deacetyldiltiazem] | Activity relative to the activity of diltiazem hydrochloride [1]: 20%-40%
2 |  | COc1ccc([C@@H]2Sc3ccccc3N(CCN(C)C)C(=O)[C@@H]2OC(C)=O)cc1 [diltiazem hydrochloride, reference compound] | solubility (physchem; organic solvent or mixture): 79 mg/mL
3 | insoluble | hydroxypropyl methylcellulose | 
4 | insoluble | sodium carboxymethylcellulose | 
